Data reported in patent US6864272B2, “Method and composition for treating cancer using cellular organelle crystallizing agents” (priority 2000, dated 2005).

Tests used:
9 L gliosarcoma = assay: In vivo antitumor activity of tetrazolium salts in polylactic acid polymer, established flank tumor in rats (Example 3); conditions: 2.5 mg/kg in polylactic acid polymer implanted in 14 day established tumor, tumor volume on day 60, n=6
SDH = assay: Inhibition of crystal formation on cellular structures by prior incubation with SDH inhibitor; assay type: cell-based; conditions: prior incubation of cells with the SDH inhibitor, crystals of Examples 4 through 7
Source text: The crystallization of organelles, such as centrosome, mitochondrion, or nuclear envelopes (or endoplasmic retulum), effectively stopped cell proliferation and induced cell death as well. This kind of cell death, which is different form either necrosis or appoptosis, is called cellular-organelle-crystallizatin-induced-death, […]. COCID also refers to the cell death, induced by the crystallization of cytoskeletons as well as the crystallization of the sub-units of cellular organelles and cytoskeletons. COCID further refers to the cell death, induced by the crystallization of proteins and small molecules located on cytoskeletons or the sub-units of cellular organelles and ccytoskeletons.
[…]

With `c1ccc(-c2nn(-c3ccccc3)[n+](-c3ccccc3)n2)cc1` [TR, 2,3,5-triphenyltetrazolium chloride] as the molecule, how does the Tumor size (9 L gliosarcoma) read?
The Tumor size was 44 ± 5.3 cm^3.

How did the Tumor size (9 L gliosarcoma) turn out when `c1ccc(-c2nn(-c3ccccc3)[n+](-c3cccc4ccccc34)n2)cc1` [TV, 2,5-diphenyl-3-[1-naphthyl]-2H-tetrazolium chloride] was run?
The Tumor size was 21 ± 2.3 cm^3.

`O=C(O)CC[N+](=O)[O-]` [nitropropionic acid] was tested. Which “inhibition of the crystals on the cellular structures” value (SDH) did it give?
Its value is “could be inhibited”.
